# Target: human chemokine receptor CXCR7 (Homo sapiens (Human), UniProt P25106)
# Experiment: Tango CXCR7-bla U2OS beta-arrestin recruitment assay (beta-lactamase reporter, FRET), antagonism of CXCL12/SDF1-α;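 further: compounds preincubated 15 min before CXCL12 addition, then 22 h at 37 °C, FRET emission ratio read with CCF4-AM substrate after 2 h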
# Assay type: cell-based
# Conditions: antagonistic effect on CXCR7; Tango CXCR7-bla U2OS cells, CXCL12/SDF1-α at its EC80
# Chain of human chemokine receptor CXCR7 (P25106 whole entry): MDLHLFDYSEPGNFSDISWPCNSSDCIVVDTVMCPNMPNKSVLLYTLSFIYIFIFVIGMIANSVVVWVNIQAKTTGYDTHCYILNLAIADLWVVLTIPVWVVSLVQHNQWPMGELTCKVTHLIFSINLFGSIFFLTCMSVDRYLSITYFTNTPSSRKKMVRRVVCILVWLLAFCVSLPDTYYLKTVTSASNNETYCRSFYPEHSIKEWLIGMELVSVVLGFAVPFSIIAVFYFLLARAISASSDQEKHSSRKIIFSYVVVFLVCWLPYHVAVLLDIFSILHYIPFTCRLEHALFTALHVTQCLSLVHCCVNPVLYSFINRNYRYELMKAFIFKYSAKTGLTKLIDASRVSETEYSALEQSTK
row,SMILES,IC50
1,"C[C@@H](NC(=O)[C@@H]1CN(C2CCCCC2)CC[C@H]1NC(=O)c1cc(-c2ccc(F)cc2F)no1)c1cnccn1 (relative stereo) [Example 1.133, (3R*,4R*)-1-Cyclohexyl-4-{[3-(2,4-difluoro-phenyl)-isoxazole-5-carbonyl]-amino}-piperidine-3-carboxylic acid ((R)-1-pyrazin-2-yl-ethyl)-amide]",594 nM
2,"C[C@@H](NC(=O)[C@@H]1CN(C2CCCCC2)CC[C@H]1NC(=O)c1cn(-c2ccc(F)cc2F)nn1)C1CCC1 (relative stereo) [Example 1.134, (3R*,4R*)-1-Cyclohexyl-4-{[1-(2,4-difluoro-phenyl)-1H-[1,2,3]triazole-4-carbonyl]-amino}-piperidine-3-carboxylic acid ((R)-1-cyclobutyl-ethyl)-amide]",266 nM
3,"C[C@@H](NC(=O)[C@@H]1CN(C2CCCC2)CC[C@H]1NC(=O)c1cn(-c2ccc(F)cc2F)nn1)C1CCC1 (relative stereo) [Example 1.135, (3R*,4R*)-1-Cyclopentyl-4-{[1-(2,4-difluoro-phenyl)-1H-[1,2,3]triazole-4-carbonyl]-amino}-piperidine-3-carboxylic acid ((R)-1-cyclobutyl-ethyl)-amide]",592 nM
4,"C[C@@H]1CCC[C@H]1N1CC[C@@H](NC(=O)c2cn(-c3ccc(F)cc3F)nn2)[C@H](C(=O)N[C@H](C)C2CCC2)C1 (relative stereo) [Example 1.137, (3R*,4R*)-4-{[1-(2,4-Difluoro-phenyl)-1H-[1,2,3]triazole-4-carbonyl]-amino}-1-((1RS,2RS)-2-Methyl-cyclopentyl)-piperidine-3-carboxylic acid ((R)-1-cyclobutyl-ethyl)-amide]",919 nM
5,"C[C@@H](NC(=O)[C@@H]1CN(C2CCCC2)CC[C@H]1NC(=O)c1cc(-c2ccc(F)cc2F)no1)C1CCC1 (relative stereo) [Example 1.141, (3R*,4R*)-1-Cyclopentyl-4-{[3-(2,4-difluoro-phenyl)-isoxazole-5-carbonyl]-amino}-piperidine-3-carboxylic acid ((R)-1-cyclobutyl-ethyl)-amide]",379 nM
6,"C[C@@H]1CCC[C@H]1N1CC[C@@H](NC(=O)c2cc(-c3ccc(F)cc3F)no2)[C@H](C(=O)N[C@H](C)c2ccccn2)C1 (relative stereo) [Example 1.155, (3R*,4R*)-4-{[3-(2,4-Difluoro-phenyl)-isoxazole-5-carbonyl]-amino}-1-((1RS,2RS)-2-methyl-cyclopentyl)-piperidine-3-carboxylic acid ((R)-1-pyridin-2-yl-ethyl)-amide]",315 nM

# Now those with a lower IC50, led by results:
row,IC50,SMILES
1,202 nM,"C[C@@H](NC(=O)[C@@H]1CN(CC2CC2)CC[C@H]1NC(=O)c1cn(-c2ccc(F)cc2F)nn1)C1CCC1 (relative stereo) [Example 1.136, (3R*,4R*)-1-Cyclopropylmethyl-4-{[1-(2,4-difluoro-phenyl)-1H-[1,2,3]triazole-4-carbonyl]-amino}-piperidine-3-carboxylic acid ((R)-1-cyclobutyl-ethyl)-amide]"
2,54 nM,"C[C@@H](NC(=O)[C@@H]1CN(CC2CC2)CC[C@H]1NC(=O)c1cc(-c2ccc(F)cc2F)no1)c1ccccn1 (relative stereo) [Example 1.154, (3R*,4R*)-1-Cyclopropylmethyl-4-{[3-(2,4-difluoro-phenyl)-isoxazole-5-carbonyl]-amino}-piperidine-3-carboxylic acid ((R)-1-pyridin-2-yl-ethyl)-amide]"
3,50 nM,"C[C@@H](NC(=O)[C@@H]1CN(CC2CC2)CC[C@H]1NC(=O)c1cc(-c2c(F)cc(F)cc2F)on1)C1CCC1 (relative stereo) [Example 1.139, (3R*,4R*)-1-Cyclopropylmethyl-4-{[5-(2,4,6-trifluoro-phenyl)-isoxazole-3-carbonyl]-amino}-piperidine-3-carboxylic acid ((R)-1-cyclobutyl-ethyl)-amide]"

# Source: patent US11306078B2, “Piperidine CXCR7 receptor modulators” (IDORSIA PHARMACEUTICALS LTD., priority 2016, dated 2022)
